Data reported in PMC12112332, “Characterization of Novel and Known Activators of Cannabinoid Receptor Subtype 2 Reveals Mixed Pharmacology That Differentiates Mycophenolate Mofetil and GW-842,166X from MDA7” (International Journal of Molecular Sciences, 2025).
Where two headings read alike, the source gives them in different places.

Target: T1, rCB2 (Rattus norvegicus, UniProt Q9QZN9)
T1 construct: expressed in transfected cells; host or cells: HEK293 cells stably co-expressing GIRK1/2 channels
T1 sequence (Q9QZN9 1-360): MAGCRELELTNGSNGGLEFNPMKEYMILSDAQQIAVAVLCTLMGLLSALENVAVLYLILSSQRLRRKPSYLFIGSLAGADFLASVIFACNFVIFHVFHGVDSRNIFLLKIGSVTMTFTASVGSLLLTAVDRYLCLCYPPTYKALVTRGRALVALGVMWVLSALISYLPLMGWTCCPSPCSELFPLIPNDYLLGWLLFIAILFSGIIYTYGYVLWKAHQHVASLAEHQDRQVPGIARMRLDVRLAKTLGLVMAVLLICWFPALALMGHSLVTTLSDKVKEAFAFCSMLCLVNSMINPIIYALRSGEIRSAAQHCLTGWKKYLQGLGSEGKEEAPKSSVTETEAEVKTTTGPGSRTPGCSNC
Assay: Thallium flux assay in HEK/GIRK cells expressing rCB2
Assay type: cell-based
Settings: for rCB2 GIRK (−) 2-AG % Max ± SEM / rCB2 GIRK (+) 2-AG % Max ± SEM: % of maximal 2-AG response
Experimental: To identify new compounds capable of potentiating CB2 responses to the endogenous agonist 2-AG, we used a thallium flux assay measuring the ability of ligands to enhance 2-AG-induced responses in cells expressing rCB2 and GIRK1/2 channels to screen a collection of FDA-approved drugs. Compounds were added to cells loaded with thallium-sensitive dye and allowed to incubate for 2.3 min, whereupon a submaximal concentration (EC20) of 2-AG was added to the cells and the signal was monitored for an additional 2.7 min. The ~1000 compound collection was initially screened at a single point using a 10 µM concentration of the compound. Test compounds that potentiated the cellular response to 2-AG by a minimum of 3 standard deviations above the average EC20 agonist response were selected as potential PAM hits. A total of 63 putative PAMs were identified; of these, 13 were confirmed as active with concentration-dependent activity at the rCB2 receptor.
The cell lines used in this manuscript were generated in-house. Their preparation is described in detail in Qi et al.. Cells were used for 10 passages for experiments and day-to-day signals in both the CB2 and CB1 lines were stable across this passage number. Human Embryonic Kidney (HEK) 293 cells stably expressing rCB2 and the G protein Gqi9 were maintained in Dulbecco’s modified Eagle media (DMEM) containing 10% FBS, 1× antibiotic/antimycotic, 20 mM HEPES, 1 mM sodium pyruvate, 2 mM L-glutamine, 1× non-essential amino acids, 700 µg/mL G418 sulfate, and 0.6 µg/mL puromycin. HEK cells stably expressing rCB2 or rCB1 and the G protein inwardly rectifying potassium channel (GIRK) were maintained in DMEM/F12 containing 10% FBS, 1× antibiotic/antimycotic, 20 mM HEPES, 1 mM sodium pyruvate, 2 mM L-glutamine, 1× non-essential amino acids, 700 µg/mL G418 sulfate, and 0.6 µg/mL puromycin. Cells were monitored by periodic PCR detection using the LookOut Mycoplasma PCR Detection Kit (Sigma-Aldrich, St Louis, MO, USA) to eliminate potential mycoplasma infection. Reagents were obtained from Invitrogen (Waltham, MA, USA) unless otherwise noted.
Thallium flux assays were performed as previously described in Niswender et al., 2008 [31]. HEK/GIRK cells stably expressing rCB1 or rCB2 (15,000 cells/20 µL/well) were seeded in 384-well, poly-D-lysine coated assay plates (Corning BioCoat®) (Corning Inc., Corning, NY, USA) and incubated overnight at 37 °C in the presence of 5% CO2. The next day, the medium was removed and replaced with 20 μL of 1.2 µM thallium-sensitive dye Thallos-AM (ION biosciences, San Marcos, TX, USA), prepared as a DMSO stock solution mixed in a 1:1 ratio with 10% (w/v) pluronic acid F-127, and diluted in assay buffer (Hank’s balanced salt solution, 20 mM HEPES, pH 7.4). Following 1 h at room temperature, the dye solution was removed and replaced with 20 µL assay buffer. For screening of the FDA-Approved Drug Collection, 10 mM DMSO stocks of library compounds were transferred to daughter plates using an Echo acoustic plate reformatter (Labcyte, Sunnyvale, CA, USA) and diluted in assay buffer to a 2× final concentration. For concentration–response curve experiments, compounds were serially diluted 1:3 into 10-point concentration–response curves in DMSO, transferred to daughter plates using the Echo or Bravo Automated Liquid Handling Platform (Agilent Technologies, Santa Clara, CA, USA), and diluted in assay buffer to a 2× final concentration. Thallium flux was measured using the Hamamatsu FDSS/μCELL Kinetic Plate Imager (Bridgewater, NJ, USA). After the establishment of a fluorescence baseline (excitation, 480 ± 20 nm; emission, 540 ± 30 nm), 20 µL (2×) of test compound was added to the cells at 1 s and the response was measured. […]

[1] = rCB2 GIRK (−) 2-AG pEC50 ± SEM, thallium flux, absence of 2-AG
[2] = thallium flux, presence of EC20 2-AG

EC50 (thallium flux rCB2, vehicle instead of AM630, read-out: pEC50 of mycophenolate mofetil CRC, vehicle (converted)) | EC50 (thallium flux, absence of 2-AG, read-out: rCB2 GIRK EC50 in absence of 2-AG) | EC50 (thallium flux, presence of EC20 2-AG, read-out: rCB2 GIRK EC50 in presence of 2-AG) | SMILES | EC50 [1] | EC50 (rCB2 GIRK EC50 in absence of 2-AG, thallium flux, absence of 2-AG) | EC50 (rCB2 GIRK EC50 in presence of 2-AG, thallium flux, presence of EC20 2-AG) | rCB2 GIRK (−) 2-AG % Max ± SEM (thallium flux, absence of 2-AG) | rCB2 GIRK (+) 2-AG % Max ± SEM [2] | EC50 (rCB2 GIRK (+) 2-AG pEC50 ± SEM, thallium flux, presence of EC20 2-AG) | rCB2 GIRK (−) 2-AG pEC50 ± SEM (thallium flux, absence of 2-AG) | rCB2 GIRK (+) 2-AG pEC50 ± SEM [2]
 |  |  | O=C(NCC1CCOCC1)c1cnc(Nc2ccc(Cl)cc2Cl)nc1C(F)(F)F [GW-842,166X, 2-(2,4-dichloroanilino)-N-(oxan-4-ylmethyl)-4-(trifluoromethyl)pyrimidine-5-carboxamide] | 55 nM | 56 nM | 74 nM | 89 ± 5% | 82 ± 4% |  |  | 
 |  |  | CC1(Cc2ccccc2)COc2cc(C(=O)N3CCCCC3)ccc21 (centres unmarked) [MDA7, 1-[(3-benzyl-3-methyl-2,3-dihydro-1-benzofuran-6-yl)carbonyl]piperidine] | > 10000 nM |  |  | −64 ± 13% | −65 ± 15% | > 10000 nM | < 5.0 | < 5.0
339 nM | 154 nM | 228 nM | COc1c(C)c2c(c(O)c1C/C=C(\C)CCC(=O)OCCN1CCOCC1)C(=O)OC2 [Mycophenolate mofetil] |  |  |  | 71 ± 5% | 74 ± 2% |  |  | 
 |  |  | COc1c(C)c2c(c(O)c1C/C=C(\C)CCC(=O)O)C(=O)OC2 [Mycophenolic acid] |  |  |  |  |  |  |  | Inactive
